Measurements reported in patent publication US20250230129A1, “POLYAMIDE COMPOUNDS, METHOD FOR PREPARING SAME, AND MEDICAL USE THEREOF” (priority 2022, published 2025).
Where two headings read alike, the source gives them in different places. Square brackets hold non-standard residues; d marks the D form. Peptide text beside a SMILES is read from it. * marks the point of attachment. Piperidin1yl(4-NH2,4-COOH) = NC1(C(=O)O)CCN(*)CC1; dPhLac = O=C(O)[C@H](O)Cc1ccccc1; X4 = COC(=O)NC1CCN(*)CC1

Tests used:
[1] = PK and blood-brain barrier permeability in mice; type: in vivo; details: male ICR mice, intravenous 1 mg/kg
Procedure: The compounds of the present disclosure were investigated for pharmacokinetic characteristics and blood-brain barrier permeability in mice.
Healthy male ICR mice were randomly grouped, 6 animals per group. For each test compound, 3 groups of animals were used. The first group of animals was used for collecting blood and brain 5 min after the administration, and the second group of animals and the third group of animals were used for cross blood collection at subsequent time points; each test compound was intravenously administered (1 mg/kg) to corresponding groups of mice, and blood sampling via submaxillary veins of the mice was carried out at different time points. Drug contents in plasma and brain tissues at different time points were measured by an LC-MS/MS method, the brain-to-blood ratio B/P was calculated by using EXCEL software, and pharmacokinetic parameters were calculated by using DAS3.0 software.

κ receptor = κ receptor (Homo sapiens (Human), UniProt P41145); test: Competitive Kappa receptor binding assay (3H-U69593)
μ receptor = μ receptor (Homo sapiens (Human), UniProt P35372); test: μ receptor affinity assay (3H-DAMGO); type: binding
δ receptor = δ receptor (Homo sapiens (Human), UniProt P41143); test: Competitive delta receptor binding assay (3H-DADLE)
[2] = target: κ-opioid receptor (Kappa) (Homo sapiens (Human), UniProt P41145); test: In vitro functional assay, HTRF cAMP-Gi in CHO-K1-OPRK1 cells; type: cell-based
[3] = read-out: In vitro agonistic effects on k-opioid receptors EC50
[4] = CHO-K1-Kappa membranes, 3H-U69593 2 nM, read-out: κ receptor Ki
[5] = CHO-K1-μ membranes, 3H-DAMGO 2 nM, read-out: μ receptor Ki
[6] = CHO-K1-delta membranes, 3H-DADLE 4 nM, read-out: δ receptor Ki
[7] = CHO-K1-OPRK1 cells, cAMP, 1 μM Forskolin, read-out: In vitro agonistic effects on k-opioid receptors EC50

Structure (SMILES)	Ki (κ receptor)	Ki (μ receptor)	Ki (δ receptor)	EC50 [2]	further results
CC(C)C[C@@H](NC(=O)[C@@H](Cc1ccccc1)NC(=O)[C@H](N)Cc1ccccc1)C(=O)N[C@H](CCCCN)C(=O)N1CCC(N)(C(=O)O)CC1 [CR845, D-Phe-D-Phe-D-Leu-D-Lys-[ω(4-aminopiperidine-4-carboxylic acid)]-OH, reference compound]	–	–	–	–	B/P (brain-to-blood ratio) ([1]; blood and brain 5 min after administration): 0.015; AUC(0-inf) ([1]; mouse, plasma): 653 ng·h/mL; Vd ([1]; mouse, plasma): 0.6 L/kg; clearance ([1]; mouse, plasma): 27 mL/min/kg; half-life ([1]; mouse, plasma, read-out: t½ (converted)): 15.6 min; Cmax ([1]; mouse, plasma): 1620 ng/mL
CC(C)C[C@@H](NC(=O)[C@@H](Cc1ccccc1)NC(=O)[C@H](O)Cc1ccccc1)C(=O)N[C@H](CCCCN)C(=O)N1CCC(N)(C(=O)O)CC1 [Compound 3] (H-[dPhLac][dF][dL][dK]-{Piperidin1yl(4-NH2,4-COOH)})	3.31 nM	> 1000 nM	> 1000 nM	–	–
CC(C)C[C@@H](NC(=O)[C@@H](Cc1ccccc1)NC(=O)C[C@H](N)c1ccccc1)C(=O)N[C@H](CCCCN)C(=O)N1CCC(N)(C(=O)O)CC1 [Compound 4-100, 4-amino-1-[(2R)-6-amino-2-[(2R)-2-[(2R)-2-[(3S)-3-amino-3-phenylpropionylamino]-3-phenylpropionylamino]-4-methylpentanoylamino]hexanoyl]piperidine-4-carboxylic acid]	59.9 nM	> 1000 nM	> 1000 nM	–	–
COC(=O)N=S1(=O)CCN(C(=O)[C@@H](CCCCN)NC(=O)[C@@H](CC(C)C)NC(=O)[C@@H](Cc2ccccc2)NC(=O)[C@H](N)Cc2ccccc2)CC1 [Compound 4B]	1.88 nM	> 1000 nM	> 1000 nM	0.65 nM	–
COC(=O)NC1CCN(C(=O)[C@@H](C)NC(=O)[C@@H](CC(C)C)NC(=O)[C@@H](Cc2ccccc2)NC(=O)[C@H](N)Cc2ccccc2)CC1 [Compound 12A] (H-[dF][dF][dL][dA]-X4)	0.34 nM	> 1000 nM	> 1000 nM	0.07 nM	–
COC(=O)C1(N)CCN(C(=O)[C@@H](CCCCN)NC(=O)[C@@H](CC(C)C)NC(=O)[C@@H](Cc2ccccc2)NC(=O)N(C)C(CN)c2ccccc2)CC1 (stereo partly shown) [Compound 14]	1.1 nM	> 1000 nM	> 1000 nM	8.2 nM	–
CC(C)C[C@@H](NC(=O)[C@@H](Cc1ccccc1)NC(=O)N(C)C(CN)c1ccccc1)C(=O)C[C@H](CCCCN)C(=O)N1CCC(N)(C(=O)OC(C)C)CC1 (stereo partly shown) [Compound 15]	–	–	–	–	Ki (κ receptor; read-out: κ receptor Ki): 0.83 nM; Ki (μ receptor; read-out: μ receptor Ki): > 1000 nM; Ki (δ receptor; read-out: δ receptor Ki): > 1000 nM; EC50 [2, 3]: 0.63 nM
CNC(=O)NC1CCN(C(=O)[C@@H](CCCCN)NC(=O)[C@@H](CC(C)C)NC(=O)[C@@H](Cc2ccccc2)NC(=O)N(CCN)Cc2ccccc2)CC1 [Compound 17]	0.44 nM	> 1000 nM	> 1000 nM	0.3 nM	–
CC(C)C[C@@H](NC(=O)[C@@H](Cc1ccccc1)NC(=O)N(CCN)Cc1cccnc1)C(=O)C[C@H](CCCCN)C(=O)N1CCC(N)(C(=O)O)CC1 [Compound 18]	–	–	–	–	Ki (κ receptor; read-out: κ receptor Ki): 0.21 nM; Ki (μ receptor; read-out: μ receptor Ki): > 1000 nM; Ki (δ receptor; read-out: δ receptor Ki): > 1000 nM; EC50 [2, 3]: 0.18 nM
CC(C)C[C@@H](NC(=O)[C@@H](Cc1ccccc1)NC(=O)N(CCN)Cc1cncnc1)C(=O)C[C@H](CCCCN)C(=O)N1CCC(N)(C(=O)O)CC1 [Compound 19]	–	–	–	–	Ki (κ receptor; read-out: κ receptor Ki): 0.9 nM; Ki (μ receptor; read-out: μ receptor Ki): > 1000 nM; Ki (δ receptor; read-out: δ receptor Ki): > 1000 nM; EC50 [2, 3]: 0.87 nM
CN=S1(=O)CCN(C(=O)[C@@H](CCCCN)NC(=O)[C@@H](CC(C)C)NC(=O)[C@@H](Cc2ccccc2)NC(=O)N(CCN)Cc2ccccc2)CC1 [Compound 20]	0.58 nM	> 1000 nM	> 1000 nM	0.52 nM	–
CC(C)C[C@@H](NC(=O)[C@@H](Cc1ccccc1)NC(=O)N(CCN)Cc1ccccc1)C(=O)N[C@H](CCCCN)C(=O)N1CCC2(CC1)OC(=O)Nc1ncccc12 [Compound 22]	–	–	–	–	Ki (κ receptor; [4]): 0.35 nM; Ki (μ receptor; [5]): > 1000 nM; Ki (δ receptor; [6]): > 1000 nM; EC50 [2, 7]: 0.36 nM
CC(C)C[C@@H](NC(=O)[C@@H](Cc1ccccc1)NC(=O)N(CCN)Cc1ccccc1)C(=O)N[C@H](CCCCN)C(=O)N1CCC(NC(=O)OC2CCOCC2)CC1 [Compound 24]	0.36 nM	> 1000 nM	> 1000 nM	0.27 nM	–
CNS(=O)(=O)NC1CCN(C(=O)[C@@H](CCCCN)NC(=O)[C@@H](CC(C)C)NC(=O)[C@@H](Cc2ccccc2)NC(=O)N(CCN)Cc2ccccc2)CC1 [Compound 26]	–	–	–	–	Ki (κ receptor; [4]): 0.31 nM; Ki (μ receptor; [5]): > 1000 nM; Ki (δ receptor; [6]): > 1000 nM; EC50 [2, 7]: 0.25 nM
CNCCN(Cc1ccccc1)C(=O)N[C@H](Cc1ccccc1)C(=O)N[C@H](CC(C)C)C(=O)C[C@H](CCCCN)C(=O)N1CCC(N)(C(=O)O)CC1 [Compound 28]	–	–	–	–	Ki (κ receptor; read-out: κ receptor Ki): 3.31 nM; Ki (μ receptor; read-out: μ receptor Ki): > 1000 nM; Ki (δ receptor; read-out: δ receptor Ki): > 1000 nM
CC(C)C[C@@H](NC(=O)[C@@H](Cc1ccccc1)NC(=O)N(C)C(CN)c1ccccc1)C(=O)N[C@H](CCCCN)C(=O)N1CCC2(CC1)CNC(=O)c1ncccc12 (stereo partly shown) [Compound 32]	0.58 nM	> 1000 nM	> 1000 nM	0.65 nM	–
CC(C)C[C@@H](NC(=O)[C@@H](Cc1ccccc1)NC(=O)N(C)C(CN)c1ccccc1)C(=O)N[C@H](CCCCN)C(=O)N1CCC(NC(=O)OC2CCOCC2)CC1 (stereo partly shown) [Compound 33]	0.56 nM	> 1000 nM	> 1000 nM	0.81 nM	–
CC(C)C[C@@H](NC(=O)[C@@H](Cc1ccccc1)NC(=O)N(CCN)Cc1ccccc1)C(=O)N[C@H](CCCCN)C(=O)N1CCC(F)(C(=O)O)CC1 [Compound 34]	0.6 nM	> 1000 nM	> 1000 nM	0.71 nM	–
CC(C)C[C@@H](NC(=O)[C@@H](Cc1ccccc1)NC(=O)N(CCN)Cc1ccccc1)C(=O)N[C@H](CCCCN)C(=O)N1CCC(C#N)CC1 [Compound 35]	0.18 nM	> 1000 nM	> 1000 nM	0.17 nM	–
CC(C)C[C@@H](NC(=O)[C@@H](Cc1ccccc1)NC(=O)N(C)C(CN)c1ccccc1)C(=O)N[C@H](CCCCN)C(=O)N1CCS(=O)(=O)CC1 (stereo partly shown) [Compound 36]	0.98 nM	> 1000 nM	> 1000 nM	0.35 nM	–
CC(C)C[C@@H](NC(=O)[C@@H](Cc1ccccc1)NC(=O)N(C)C(CN)c1ccccc1)C(=O)N[C@H](CCCCN)C(=O)N1CCOCC1 (stereo partly shown) [Compound 37]	0.41 nM	> 1000 nM	> 1000 nM	0.39 nM	–
CC(C)C[C@@H](NC(=O)[C@@H](Cc1ccccc1)NC(=O)N(C)C(CN)c1ccccc1)C(=O)N[C@H](CCCCN)C(=O)N1CCNCC1 (stereo partly shown) [Compound 38]	0.17 nM	> 1000 nM	> 1000 nM	0.54 nM	–
CC(C)C[C@@H](NC(=O)[C@@H](Cc1ccccc1)NC(=O)N(CCN)Cc1ccccc1)C(=O)N[C@H](CCCCN)C(=O)N1CCOCC1 [Compound 39]	0.27 nM	> 1000 nM	> 1000 nM	0.35 nM	–
CC(C)C[C@@H](NC(=O)[C@@H](Cc1ccccc1)NC(=O)N(CCN)Cc1ccccc1)C(=O)N[C@H](CCCCN)C(=O)N1CCNCC1 [Compound 40]	0.58 nM	> 1000 nM	> 1000 nM	0.13 nM	–
COC(=O)NC1CCN(C(=O)[C@@H](C)NC(=O)[C@@H](CC(C)C)NC(=O)[C@@H](Cc2ccccc2)NC(=O)N(CCN)Cc2ccccc2)CC1 [Compound 42]	0.47 nM	> 1000 nM	> 1000 nM	0.46 nM	–
CC(=O)N(CCCN)C1CCN(C(=O)[C@@H](C)CC(=O)[C@@H](CC(C)C)NC(=O)[C@H](CC(=O)N(CCN)Cc2ccccc2)Cc2ccccc2)CC1 [Compound 44]	–	–	–	–	Ki (κ receptor; read-out: κ receptor Ki): 0.55 nM; Ki (μ receptor; read-out: μ receptor Ki): > 1000 nM; Ki (δ receptor; read-out: δ receptor Ki): > 1000 nM; EC50 [2, 3]: 0.09 nM
